Data as given in ChEMBL document CHEMBL1131922, “Synthesis and biological evaluation of cryptophycin analogs with substitution at C-6 (fragment C region)” (Bioorg Med Chem Lett, 1999).

Test system: CCRF-CEM
Experiment: In vitro cytotoxicity against human leukemia CCRF-CEM cell line
Format: functional, cell-based

Going from `COc1ccc(C[C@H]2NC(=O)/C=C/C[C@@H]([C@H](C)[C@H]3O[C@@H]3c3ccccc3)OC(=O)[C@H](CC(C)C)OC(=O)C3(CCCC3)CNC2=O)cc1Cl` to `COc1ccc(C[C@H]2NC(=O)/C=C/C[C@@H]([C@H](C)[C@H]3O[C@@H]3c3ccccc3)OC(=O)[C@H](CC(C)C)OC(=O)C3(CCCCC3)CNC2=O)cc1Cl`, the IC50 rises from 300 pM to 63000 pM (210-fold).

Going from `COc1ccc(C[C@H]2NC(=O)/C=C/C[C@@H]([C@H](C)[C@@H](O)[C@@H](Cl)c3ccccc3)OC(=O)[C@H](CC(C)C)OC(=O)C3(CCCC3)CNC2=O)cc1Cl` to `COc1ccc(C[C@H]2NC(=O)/C=C/C[C@@H]([C@H](C)[C@@H](O)[C@@H](Cl)c3ccccc3)OC(=O)[C@H](CC(C)C)OC(=O)C3(CCCCC3)CNC2=O)cc1Cl`, the IC50 rises from 400 pM to 110000 pM (280-fold).

Going from `COc1ccc(C[C@H]2NC(=O)/C=C/C[C@@H]([C@H](C)[C@H]3O[C@@H]3c3ccccc3)OC(=O)[C@H](CC(C)C)OC(=O)C3(CC3)CNC2=O)cc1Cl` to `COc1ccc(C[C@H]2NC(=O)/C=C/C[C@@H]([C@H](C)[C@H]3O[C@@H]3c3ccccc3)OC(=O)[C@H](CC(C)C)OC(=O)C(C)(C)CNC2=O)cc1Cl` [CRYPTOPHYCIN 52], the IC50 falls from 160 pM to 20 pM (8-fold).

Going from `COc1ccc(C[C@H]2NC(=O)/C=C/C[C@@H]([C@H](C)[C@@H](O)[C@@H](Cl)c3ccccc3)OC(=O)[C@H](CC(C)C)NC(=O)C3(CC3)CNC2=O)cc1Cl` to `COc1ccc(C[C@H]2NC(=O)/C=C/C[C@@H]([C@H](C)[C@@H](O)[C@@H](Cl)c3ccccc3)OC(=O)[C@H](CC(C)C)NC(=O)C(C)(C)CNC2=O)cc1Cl`, the IC50 rises from 10 pM to 16 pM (1.6-fold). The first is the more potent here.

Going from `COc1ccc(C[C@H]2NC(=O)/C=C/C[C@@H]([C@H](C)[C@@H](O)[C@@H](Cl)c3ccccc3)OC(=O)[C@H](CC(C)C)OC(=O)C(C)(C)CNC2=O)cc1Cl` to `COc1ccc(C[C@H]2NC(=O)/C=C/C[C@@H]([C@H](C)[C@@H](O)[C@@H](Cl)c3ccccc3)OC(=O)[C@H](CC(C)C)OC(=O)C3(CC3)CNC2=O)cc1Cl`, the IC50 falls from 50 pM to 14 pM (3.6-fold). The second is the more potent here.

Compared with `CCC1(CC)CNC(=O)[C@@H](Cc2ccc(OC)c(Cl)c2)NC(=O)/C=C/C[C@@H]([C@H](C)[C@H]2O[C@@H]2c2ccccc2)OC(=O)[C@H](CC(C)C)OC1=O`, `CCCC1(CCC)CNC(=O)[C@@H](Cc2ccc(OC)c(Cl)c2)NC(=O)/C=C/C[C@@H]([C@H](C)[C@H]2O[C@@H]2c2ccccc2)OC(=O)[C@H](CC(C)C)OC1=O` is 7.7-fold higher in IC50: 1100 pM for the first, 8500 pM for the second.

Going from `CCC1(CC)CNC(=O)[C@@H](Cc2ccc(OC)c(Cl)c2)NC(=O)/C=C/C[C@@H]([C@H](C)[C@@H](O)[C@@H](Cl)c2ccccc2)OC(=O)[C@H](CC(C)C)OC1=O` to `CCCC1(CCC)CNC(=O)[C@@H](Cc2ccc(OC)c(Cl)c2)NC(=O)/C=C/C[C@@H]([C@H](C)[C@@H](O)[C@@H](Cl)c2ccccc2)OC(=O)[C@H](CC(C)C)OC1=O`, the IC50 rises from 1600 pM to 8700 pM (5.4-fold).
